Reference: publication PMC11284788, “NN1213 – A Potent, Long-Acting, and Selective Analog of Human Amylin” (Journal of Medicinal Chemistry, 2024)
In brackets after ≈: the same amount, converted by molar mass. Like-named read-outs stand apart in the source and are kept apart here. Numbered stars: 1 amine (or outer) side, 2 acyl side, 3 side chain; on linkers, the order of the positions; unused ones are H or OH. Bridge positions count the residues as written; N and C are the ends. Side chains are listed from the residue outwards. Peptide text beside a SMILES is read from it. * marks the point of attachment. C20 diacid = O=C(O)CCCCCCCCCCCCCCCCCCC(=O)*; γGlu = O=C(O)[C@H](CCC(=O)[*:2])N[*:1]

Legend:
[1] = Solubility versus pH profile
hAMY3R = target: T1, hAMY3R (Homo sapiens, UniProt O60896+P30988); test: cAMP-responsive element luciferase reporter assay, human AMY3R; type: cell-based; design: expressed in transfected cells; settings: for EC50: luciferase (human receptor assay); for ratio hCTR/hAMY3R: ratio of luciferase EC50 values
T1 sequence (P30988 25-474): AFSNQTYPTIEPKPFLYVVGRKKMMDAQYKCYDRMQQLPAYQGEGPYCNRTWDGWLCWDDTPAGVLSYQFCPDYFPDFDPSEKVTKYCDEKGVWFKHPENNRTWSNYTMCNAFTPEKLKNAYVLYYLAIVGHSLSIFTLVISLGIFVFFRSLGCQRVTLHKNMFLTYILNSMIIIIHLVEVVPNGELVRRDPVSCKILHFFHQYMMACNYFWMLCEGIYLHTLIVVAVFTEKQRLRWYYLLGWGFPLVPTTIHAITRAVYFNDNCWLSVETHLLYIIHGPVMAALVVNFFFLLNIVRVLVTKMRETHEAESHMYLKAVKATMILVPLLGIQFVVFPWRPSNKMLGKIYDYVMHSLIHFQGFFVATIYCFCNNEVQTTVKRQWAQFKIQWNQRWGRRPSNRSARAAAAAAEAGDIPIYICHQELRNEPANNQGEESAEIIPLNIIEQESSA
T1 sequence (O60896 24-148 partner): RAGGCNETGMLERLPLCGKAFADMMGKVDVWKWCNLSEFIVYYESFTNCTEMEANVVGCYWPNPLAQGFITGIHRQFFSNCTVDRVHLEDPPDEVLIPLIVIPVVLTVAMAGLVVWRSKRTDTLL

hCTR = target: T2, hCTR (Homo sapiens, UniProt P30988); test: cAMP-responsive element luciferase reporter assay, human CTR; type: cell-based; settings: luciferase (human receptor assay)
T2 sequence (P30988 25-474): T1 sequence (P30988 25-474)

[2] = ThT assay: fibril formation propensity and peptide recovery; type: physicochemical; settings: for ThT, pH 7.5 lag-time: 250 μM peptide, 10 mM HEPES pH 7.5, 1 μM ThT, 37 °C, 960 rpm, 45 h, lowest of four replicas, average of experiments; for recovery: pH 7.5, residual dissolved peptide after 45 h of shaking, centrifugation and 0.22 μm filtration, HPLC, relative to amount before stress
Procedure: The stability properties of the individual amylin analogs were assessed with respect to their propensity toward fibril formation, expressed as the time until fibril formation (measured as Lag time) and loss of dissolved peptide (assessed as Peptide Recovery). […] Samples were prepared as described previously (using the same methodology and materials) for a novel amylin-based analog candidate compound.[7]
Briefly, each compound was dissolved in 10 mM of glycylglycine buffer (pH 4.0) or HEPES buffer (pH 7.5) to a concentration of 250 μM, followed by ThT stock solution to a final concentration of 1 μM. Each solution was aliquoted into a microtiter plate (200 μL/well) sealed with a transparent adhesive sheet. Mechanical stress was applied at 37 °C incubation (960 rpm, 1 mm amplitude) with 20 min fluorescence reading intervals for 45 h (filters: excitation 444 nm; emission 485 nm). Each peptide was tested in experiments consisting of four replicas (e.g., four wells on the same plate), and the lag time of each replica was determined by visual inspection of the fluorescence-versus-time plot. For wells where no fibril formation could be detected, the lag time was set longer than the test period (>45 h). The lag time of the peptide was set to the lowest lag time of the four replicates (conservative estimate). Some of the peptides were tested in more than one experiment, and the lag time results given in Tables 6 and 9 represent the average of these experiments. The ThT time course data given in Supporting Information represent the average and SEM of each experiment.[40] After analysis, wells representing individual replicas were pooled, and the residual soluble peptide was isolated using centrifugation (20,000 g/30 min at room temperature) followed by […] filtration. The amount of residual dissolved peptide was determined using an HPLC with a flow rate of 2 mL/min at 30 °C and 215/276 nm detection. A gradient combining eluent A (7.7% w/w acetonitrile, 200 mM Na2SO4, 20 mM NaH2PO4, 20 mM Na2HPO4, pH 7.2) and eluent B (65.5% w/w acetonitrile) was applied. The amount of residual dissolved peptide was reported on a relative scale (Peptide Recovery) to the amount of dissolved peptide prior to mechanical stress.

[3] = HMWP content by size-exclusion chromatography; type: physicochemical; settings: analogs 1–9 (pH 7.5 series); covalent dimers and polymers prior to fibril formation testing, SEC, % of total absorbance area at 215 nm
Procedure: The stability properties of the individual amylin analogs were assessed with respect to their propensity toward amyloid fibril formation. The relative amount of covalent dimers and polymers (HMWP) present prior to fibril formation testing was measured as a control for the potential inhibitory effect of HMWP on fibril formation propensity as reported elsewhere.[39]
Elution was performed under isocratic conditions with the following mobile phase prepared in Milli-Q water (Millipore A/S): 0.5 M NaCl, 10 mM sodium dihydrogen monohydrate, 5 mM ortho-phosphoric acid, 50% (v/v) 2-propanol. The amount of HMWP was determined as the absorbance area of the corresponding peaks given in percentage of the total absorbance area. The molar extinction coefficients of the molecules eluting in the HMWP fraction and the main peak was assumed to be equal.

[4] = Tables S12 and S14, read-out: hAMY3R pEC50 (converted)
[5] = BHK cells stably expressing hCTR+RAMP3 and CRE-luciferase, 3 h, 37 °C, 10% FBS, read-out: hAMY3R EC50
[6] = Tables S12 and S14, read-out: hCTR pEC50 (converted)
[7] = BHK cells stably expressing hCTR and CRE-luciferase, 3 h, 37 °C, 10% FBS, read-out: hCTR EC50

Compound	solubility kinetic ([1]; bis-tris-propane buffer, pH 6, aqueous buffer)	solubility kinetic ([1]; bis-tris-propane buffer, pH 6.5, aqueous buffer)	solubility kinetic ([1]; bis-tris-propane buffer, pH 7, aqueous buffer)	solubility kinetic ([1]; bis-tris-propane buffer, pH 7.5, aqueous buffer)	solubility kinetic ([1]; bis-tris-propane buffer, pH 8, aqueous buffer)	solubility kinetic ([1]; lactate buffer, pH 4, aqueous buffer)	solubility kinetic ([1]; lactate buffer, pH 5, aqueous buffer)	EC50 (hAMY3R; [4])	EC50 (hAMY3R; [5])	ratio hCTR/hAMY3R (hAMY3R)	EC50 (hCTR; [6])	EC50 (hCTR; [7])	ThT, pH 7.5 lag-time [2]	recovery [2]	HMWP [3]
CC(C)C[C@H](NC(=O)[C@H](CCCNC(=N)N)NC(=O)[C@H](CCC(N)=O)NC(=O)[C@@H](NC(=O)[C@H](C)NC(=O)[C@@H]1CSSC[C@H](NC(=O)[C@@H](N)CCCCNC(=O)CC[C@H](NC(=O)CCCCCCCCCCCCCCCCCCC(=O)O)C(=O)O)C(=O)N[C@@H](CC(N)=O)C(=O)N[C@@H]([C@@H](C)O)C(=O)N[C@@H](C)C(=O)N[C@@H]([C@@H](C)O)C(=O)N1)[C@@H](C)O)C(=O)N[C@@H](C)C(=O)N[C@@H](CC(=O)O)C(=O)N[C@@H](Cc1ccccc1)C(=O)N[C@@H](CC(C)C)C(=O)N[C@@H](CCCNC(=N)N)C(=O)N[C@@H](Cc1c[nH]cn1)C(=O)N[C@@H](CO)C(=O)N[C@@H](CO)C(=O)N[C@@H](CCC(N)=O)C(=O)N[C@@H](CC(N)=O)C(=O)N[C@@H](Cc1ccccc1)C(=O)NCC(=O)N[C@@H](C)C(=O)N1CCC[C@H]1C(=O)N[C@@H](CC(C)C)C(=O)N[C@@H](CO)C(=O)N[C@@H](CO)C(=O)N[C@H](C(=O)N[C@@H](CC(N)=O)C(=O)N[C@H](C(=O)NCC(=O)N[C@@H](CO)C(=O)N1CCC[C@H]1C(=O)N[C@H](C(=O)N[C@@H](Cc1ccc(O)cc1)C(N)=O)[C@@H](C)O)C(C)C)[C@@H](C)O [Peptide 2] (H-K([γGlu-C20 diacid])CNTATCATQRLADFLRHSSQNFGAPLSSTNVGSPTY-NH2; disulfide 2-7)	≥ 200 µM	75 µM (≈ 330 µg/mL)	7 µM (≈ 30.8 µg/mL)	7 µM (≈ 30.8 µg/mL)	15 µM (≈ 65.9 µg/mL)	≥ 200 µM	≥ 200 µM	1.55 nM	1.54 nM	0.9	1.38 nM	1.37 nM	0 h	0%	
CC[C@H](C)[C@H](NC(=O)[C@H](C)NC(=O)CNC(=O)[C@H](Cc1ccccc1)NC(=O)[C@@H]1CCCN1C(=O)[C@H](CC(N)=O)NC(=O)[C@H](CO)NC(=O)[C@H](CO)NC(=O)[C@H](Cc1c[nH]cn1)NC(=O)[C@H](CCCNC(=N)N)NC(=O)[C@H](CC(C)C)NC(=O)[C@H](Cc1ccccc1)NC(=O)[C@H](CC(=O)O)NC(=O)[C@H](C)NC(=O)[C@H](CC(C)C)NC(=O)[C@H](CCCNC(=N)N)NC(=O)[C@H](CCC(N)=O)NC(=O)[C@@H](NC(=O)[C@H](C)NC(=O)[C@@H]1CSSC[C@H](NC(=O)[C@@H](N)CCCCNC(=O)CC[C@H](NC(=O)CC[C@H](NC(=O)CCCCCCCCCCCCCCCCCCC(=O)O)C(=O)O)C(=O)O)C(=O)N[C@@H](CC(N)=O)C(=O)N[C@@H]([C@@H](C)O)C(=O)N[C@@H](C)C(=O)N[C@@H]([C@@H](C)O)C(=O)N1)[C@@H](C)O)C(=O)N1CCC[C@H]1C(=O)N[C@@H](CO)C(=O)N[C@@H](CO)C(=O)N[C@H](C(=O)N[C@@H](CC(N)=O)C(=O)N[C@H](C(=O)NCC(=O)N[C@@H](CO)C(=O)N[C@@H](CC(=O)O)C(=O)N[C@H](C(=O)N[C@@H](Cc1ccc(O)cc1)C(N)=O)[C@@H](C)O)C(C)C)[C@@H](C)O [Peptide 8] (H-K([γGlu-γGlu-C20 diacid])CNTATCATQRLADFLRHSSNPFGAIPSSTNVGSDTY-NH2; disulfide 2-7)								0.389 nM	0.39 nM	5.6	2.19 nM	2.19 nM	>45 h	100%	2.5%
CC[C@H](C)[C@H](NC(=O)[C@@H]1CCCN1C(=O)CNC(=O)[C@H](Cc1ccccc1)NC(=O)[C@H](CC(N)=O)NC(=O)[C@H](CCC(=O)O)NC(=O)[C@H](CO)NC(=O)[C@H](CO)NC(=O)[C@H](Cc1c[nH]cn1)NC(=O)[C@H](CCCNC(=N)N)NC(=O)[C@H](CC(C)C)NC(=O)[C@H](Cc1ccccc1)NC(=O)[C@H](CC(=O)O)NC(=O)[C@H](C)NC(=O)[C@H](CC(C)C)NC(=O)[C@H](CCCNC(=N)N)NC(=O)[C@H](CCC(N)=O)NC(=O)[C@@H](NC(=O)[C@H](C)NC(=O)[C@@H]1CSSC[C@H](NC(=O)[C@@H](N)CCCCNC(=O)CC[C@H](NC(=O)CC[C@H](NC(=O)CCCCCCCCCCCCCCCCCCC(=O)O)C(=O)O)C(=O)O)C(=O)N[C@@H](CC(N)=O)C(=O)N[C@@H]([C@@H](C)O)C(=O)N[C@@H](C)C(=O)N[C@@H]([C@@H](C)O)C(=O)N1)[C@@H](C)O)C(=O)N[C@@H](CC(C)C)C(=O)N[C@@H](CO)C(=O)N[C@@H](CO)C(=O)N[C@H](C(=O)N1CCC[C@H]1C(=O)N[C@H](C(=O)NCC(=O)N[C@@H](CO)C(=O)N[C@@H](CC(=O)O)C(=O)N[C@H](C(=O)N[C@@H](Cc1ccc(O)cc1)C(N)=O)[C@@H](C)O)C(C)C)[C@@H](C)O [Peptide 9] (H-K([γGlu-γGlu-C20 diacid])CNTATCATQRLADFLRHSSENFGPILSSTPVGSDTY-NH2; disulfide 2-7)								1.07 nM	1.06 nM	7.8	8.32 nM	8.31 nM	>45 h	100%	6%
